From ChEMBL document CHEMBL5608241, “Discovery of Novel Non-nucleoside DOT1LR231Q Inhibitors with Improved Pharmacokinetic Properties and Anti-lung Cancer Efficacy” (J Med Chem, 2024)
Calls of active or inactive are those of the source. The calls are words filed in the database; no cut-off is given here.

Experiments:
NCI-H460 [1] = assay: Antiinvasive activity against human NCI-H460 cells exogenously expressing DOT1L R231Q mutant (unknown origin) (1 to 416 residues) assessed as inhibition of cell invasion at 2.5 to 5 uM incubated for 72 hrs by crystal violet staining based transwell invasion assay; type: functional; conditions: dose 2.5-5 µM
NCI-H460 [2] = assay: Effect on H3K36me2 expression in human NCI-H460 cells exogenously expressing wildtype DOT1L (unknown origin) (1 to 416 residues) at 5 uM by Western blot analysis; type: functional, cell-based
[3] = MRT (0 to infinity) in male Sprague-Dawley rat at 20 mg/kg, ip measured after 24 hrs by LC-MS/MS analysis; type: ADME, organism-based; conditions: in vivo
NCI-H460 [4] = assay: Antiinvasive activity against human NCI-H460 cells exogenously expressing wildtype DOT1L (unknown origin) (1 to 416 residues) assessed as inhibition of cell invasion at 2.5 to 5 uM incubated for 72 hrs by crystal violet staining based transwell invasion assay; type: functional; conditions: dose 2.5-5 µM
[5] = Cmax in male Sprague-Dawley rat at 20 mg/kg, ip measured after 24 hrs by LC-MS/MS analysis; type: ADME, organism-based; conditions: in vivo
[6] = Tmax in male Sprague-Dawley rat at 20 mg/kg, iv measured after 24 hrs by LC-MS/MS analysis; type: ADME, organism-based; conditions: in vivo
[7] = AUC (0 to infinity) in male Sprague-Dawley rat at 20 mg/kg, iv measured after 24 hrs by LC-MS/MS analysis; type: ADME, organism-based; conditions: in vivo
[8] = Toxicity in male BALB/c-nu mouse model xenografted with human NCI-H460 cells harboring DOT1L R231Q mutant assessed as effect on spleen viscera index at 20 mg/kg, ip administered five times a week for 3 weeks; type: organism-based; conditions: in vivo, 504 h
NCI-H460 [9] = assay: Inhibition of MAPK/ERK signaling pathway in human NCI-H460 cells exogenously expressing wildtype DOT1L (unknown origin) (1 to 416 residues) assessed as decrease in RAF1 expression at 5 uM by Western blot analysis; type: cell-based
NCI-H460 [10] = assay: Inhibition of sphere formation in human NCI-H460 cells exogenously expressing wildtype DOT1L (unknown origin) (1 to 416 residues) assessed as reduction in self-renewal at 2.5 to 5 uM incubated for 7 to 14 days by inverted microscopic analysis; type: functional, cell-based; conditions: dose 2.5-5 µM, time 7-14 day
NCI-H460 [11] = assay: Downregulation of H3K79me2 expression in human NCI-H460 cells exogenously expressing DOT1L R231Q mutant (unknown origin) (1 to 416 residues) at 5 uM by Western blot analysis; type: functional, cell-based
[12] = AUC (0 to t) in male Sprague-Dawley rat at 20 mg/kg, iv measured after 24 hrs by LC-MS/MS analysis; type: ADME, organism-based; conditions: in vivo
NCI-H460 [13] = assay: Antimigratory activity in human NCI-H460 cells exogenously expressing DOT1L R231Q mutant (unknown origin) (1 to 416 residues) assessed as decrease in number of migrating cells at 2.5 to 5 uM measured after 72 hrs by wound healing assay; type: functional, cell-based; conditions: dose 2.5-5 µM
NCI-H460 [14] = assay: Effect on H3K9me2 expression in human NCI-H460 cells exogenously expressing DOT1L R231Q mutant (unknown origin) (1 to 416 residues) at 5 uM by Western blot analysis; type: functional, cell-based
NCI-H460 [15] = assay: Inhibition of colony formation in human NCI-H460 cells exogenously expressing DOT1L R231Q mutant (unknown origin) (1 to 416 residues) at 2.5 to 5 uM incubated for 7 to 14 days by crystal violet staining based light microscopic analysis; type: functional, cell-based; conditions: dose 2.5-5 µM, time 7-14 day
[16] = Toxicity in male BALB/c-nu mouse model xenografted with human NCI-H460 cells harboring DOT1L R231Q mutant assessed as effect on lung viscera index at 20 mg/kg, ip administered five times a week for 3 weeks; type: organism-based; conditions: in vivo, 504 h
NCI-H460 [17] = assay: Inhibition of sphere formation in human NCI-H460 cells exogenously expressing DOT1L R231Q mutant (unknown origin) (1 to 416 residues) assessed as reduction in self-renewal at 5 uM incubated for 7 to 14 days by inverted microscopic analysis relative to control; type: functional; conditions: time 7-14 day
NCI-H460 [18] = assay: Antimigratory activity in human NCI-H460 cells exogenously expressing wildtype DOT1L (unknown origin) (1 to 416 residues) assessed as decrease in number of migrating cells at 2.5 to 5 uM measured after 72 hrs by wound healing assay; type: functional, cell-based; conditions: dose 2.5-5 µM
[19] = Bioavailability in male Sprague-Dawley rat at 20 mg/kg, ip measured after 24 hrs by LC-MS/MS analysis; type: ADME, organism-based; conditions: in vivo
NCI-H460 [20] = assay: Effect on H3K27me3 expression in human NCI-H460 cells exogenously expressing DOT1L R231Q mutant (unknown origin) (1 to 416 residues) at 5 uM by Western blot analysis; type: functional, cell-based
NCI-H460 [21] = assay: Effect on H3K36me2 expression in human NCI-H460 cells exogenously expressing DOT1L R231Q mutant (unknown origin) (1 to 416 residues) at 5 uM by Western blot analysis; type: functional, cell-based
[22] = MRT (0 to infinity) in male Sprague-Dawley rat at 20 mg/kg, iv measured after 24 hrs by LC-MS/MS analysis; type: ADME, organism-based; conditions: in vivo
[23] = target: Dual specificity mitogen-activated protein kinase kinase; MEK1/2 (Homo sapiens) (UniProt P36507+Q02750); assay: Inhibition of MEK phosphorylation in human NCI-H460 cells exogenously expressing wildtype DOT1L (unknown origin) (1 to 416 residues) at 5 uM by Western blot analysis; type: cell-based
NCI-H460 [24] = assay: Inhibition of MAPK/ERK signaling pathway in human NCI-H460 cells exogenously expressing DOT1L R231Q mutant (unknown origin) (1 to 416 residues) assessed as decrease in RAF1 expression at 5 uM by Western blot analysis; type: cell-based
NCI-H460 [25] = assay: Antimigratory activity in human NCI-H460 cells exogenously expressing DOT1L R231Q mutant (unknown origin) (1 to 416 residues) assessed as decrease in number of migrating cells at 5 uM measured after 72 hrs by wound healing assay relative to control; type: functional; parameters: scale not given: the % may be the effect or the level left
NCI-H460 [26] = assay: Inhibition of ERK phosphorylation in human NCI-H460 cells exogenously expressing wildtype DOT1L (unknown origin) (1 to 416 residues) at 5 uM by Western blot analysis; type: cell-based
[27] = Toxicity in male BALB/c-nu mouse model xenografted with human NCI-H460 cells harboring DOT1L R231Q mutant assessed as effect on kidney viscera index at 20 mg/kg, ip administered five times a week for 3 weeks; type: organism-based; conditions: in vivo, 504 h
[28] = Toxicity in male BALB/c-nu mouse model xenografted with human NCI-H460 cells harboring DOT1L R231Q mutant assessed as effect on liver viscera index at 20 mg/kg, ip administered five times a week for 3 weeks; type: organism-based; conditions: in vivo, 504 h
[29] = Toxicity in male BALB/c-nu mouse model xenografted with human NCI-H460 cells harboring DOT1L R231Q mutant assessed as effect on heart viscera index at 20 mg/kg, ip administered five times a week for 3 weeks; type: organism-based; conditions: in vivo, 504 h
NCI-H460 [30] = assay: Inhibition of colony formation in human NCI-H460 cells exogenously expressing DOT1L R231Q mutant (unknown origin) (1 to 416 residues) at 5 uM incubated for 7 to 14 days by crystal violet staining based light microscopic analysis relative to control; type: functional; conditions: time 7-14 day
[31] = Clearance in male Sprague-Dawley rat at 20 mg/kg, iv measured after 24 hrs by LC-MS/MS analysis; type: ADME, organism-based; conditions: in vivo

Sequence of Dual specificity mitogen-activated protein kinase kinase; MEK1/2 (Homo sapiens) (P36507 whole entry, looked up, the tested form may be a part): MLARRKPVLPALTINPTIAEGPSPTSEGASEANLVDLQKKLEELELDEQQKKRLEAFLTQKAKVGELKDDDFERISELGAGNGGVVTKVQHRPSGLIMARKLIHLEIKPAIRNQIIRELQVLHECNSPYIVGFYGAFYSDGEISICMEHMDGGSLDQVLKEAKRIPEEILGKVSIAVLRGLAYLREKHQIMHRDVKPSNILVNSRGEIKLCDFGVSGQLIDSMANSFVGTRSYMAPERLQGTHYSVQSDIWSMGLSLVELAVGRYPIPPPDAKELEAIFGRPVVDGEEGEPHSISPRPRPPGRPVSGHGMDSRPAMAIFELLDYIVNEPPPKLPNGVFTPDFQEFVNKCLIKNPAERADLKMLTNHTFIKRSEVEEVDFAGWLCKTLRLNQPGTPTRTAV
Sequence of Dual specificity mitogen-activated protein kinase kinase; MEK1/2 (Homo sapiens) (Q02750 whole entry, looked up, the tested form may be a part): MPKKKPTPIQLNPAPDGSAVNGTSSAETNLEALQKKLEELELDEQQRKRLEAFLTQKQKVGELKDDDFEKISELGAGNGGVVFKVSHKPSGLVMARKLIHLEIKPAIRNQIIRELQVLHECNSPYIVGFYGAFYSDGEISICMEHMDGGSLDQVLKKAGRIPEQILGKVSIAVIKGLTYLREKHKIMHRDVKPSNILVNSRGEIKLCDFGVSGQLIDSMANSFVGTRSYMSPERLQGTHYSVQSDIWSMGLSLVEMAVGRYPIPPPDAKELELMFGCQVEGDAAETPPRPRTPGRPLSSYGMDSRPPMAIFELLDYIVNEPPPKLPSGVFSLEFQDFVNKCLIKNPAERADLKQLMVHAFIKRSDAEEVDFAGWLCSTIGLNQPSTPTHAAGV

MRT inf [3]: 5.42 h | Cmax [5]: 2.57 µg/mL | Tmax [6]: 4.98 min | AUC(0-inf) [7]: 6.2 µg·h/mL | AUC(0-t) at 24 h [12]: 5.98 µg·h/mL | bioavailability [19]: 92.2% | MRT inf [22]: 4.41 h | inhibition [23]: inactive | clearance [31]: 3.31 L/h/kg
SMILES: CC(C)(C)c1ccc(NC(=O)NCCCN(CCCN2CCOCC2)CC2(O)CCN(c3nc(Cl)nc4sccc34)C2)cc1 (stereo unspecified)
Activity (NCI-H460 [1]): Active | Activity (NCI-H460 [2]): inactive | Activity (NCI-H460 [4]): Active | Activity [8]: Non-Toxic | inhibition (NCI-H460 [9]): inactive | inhibition (NCI-H460 [10]): Active | Activity (NCI-H460 [11]): Active | Activity (NCI-H460 [13]): Active | Activity (NCI-H460 [14]): inactive | inhibition (NCI-H460 [15]): Active | Activity [16]: Non-Toxic | inhibition at 5 µM (NCI-H460 [17]): 82% | Activity (NCI-H460 [18]): Active | Activity (NCI-H460 [20]): inactive | Activity (NCI-H460 [21]): inactive | inhibition (NCI-H460 [24]): Active | Activity (NCI-H460 [25]): 60.4% | inhibition (NCI-H460 [26]): inactive | Activity [27]: Non-Toxic | Activity [28]: Non-Toxic | Activity [29]: Non-Toxic | inhibition at 5 µM (NCI-H460 [30]): 72.8%
